Assay results: publication PMC10995865 (Virus Research, 2024)

How the values were obtained:
[1] = molecular target: AsfvPolX-DNA complex (African swine fever virus, UniProt P42494); test: biochemical; assay type: binding
[2] = molecular target: AsfvPolX (African swine fever virus, UniProt P42494); details: cited from earlier work
Sequence of AsfvPolX (P42494 whole entry, looked up): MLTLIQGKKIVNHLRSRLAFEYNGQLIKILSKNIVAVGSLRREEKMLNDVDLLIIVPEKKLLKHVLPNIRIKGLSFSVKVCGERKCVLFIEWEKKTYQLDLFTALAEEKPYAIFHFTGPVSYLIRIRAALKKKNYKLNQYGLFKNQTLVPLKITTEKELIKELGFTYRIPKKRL

Sequence of AsfvPolX-DNA complex (P42494 whole entry, looked up, one chain of several): as the sequence (P42494 whole entry, looked up) above

**Q.** For `COc1cc(Nc2ncc(F)c(Nc3ccc4c(n3)N(COP(=O)(O)O)C(=O)C(C)(C)O4)n2)cc(OC)c1OC` [fostamatinib], which inhibition at 100 µM ([1]; read-out: Inhibition of AsfvPolX-DNA complex formation) is on record?
**A.** 0%

**Q.** What about the “Effect on AsfvPolX activity” value [2] of the same compound?
**A.** dose-dependent decrease

**Q.** For pentagastrin, which “Inhibition of AsfvPolX-DNA complex formation” value ([1]; 100 µM) is on record?
**A.** 0%

**Q.** And the “Inhibition of AsfvPolX activity” value ([2]; 100 µM)?
**A.** 60%
